According to patent publication US6979682B2, “Platelet-activating factor antagonist inhibition of angiogenesis and tumor growth induced by basic fibroblast” (Board of Supervisors of Louisiana State University and …, priority 2001, dated 2005):

Assays:
[1] = test system: human prostatic carcinoma cells, PC-3 (subcutaneous xenografts); test: subcutaneous PC-3 xenografts in nude mice, tumor volume; format: in vivo, NCr athymic nude mice
Method: Pathogen-free 4 to 6 week-old male NCr athymic nude mice (Taconic, Germantown, N.Y.) were housed in sterilized, filter-topped cages kept in laminar flow isolators (Forma Scientific, Marietta, Ohio), and fed autoclaved food and water ad libitum. Four animals were housed in each cage. Mice were acclimated to the vivarium for one week prior to their use in study protocols. All procedures involving the mice were performed under sterile conditions in a laminar flow hood (Forma Scientific). All studies were approved by the institutional animal care and use committee.
Human PC-3 prostate cancer cells (2×10^6 cells; American Type Culture Collection CRL-1435) were inoculated subcutanteously into the flanks of nude mice in 0.1 ml HBSS (Hank's balanced salt solution) (Life Technologies). For implantation of orthotopic 201T cells, animals were fully anesthetized in a Harvard small animal anesthesia chamber using nebulized Metafane (Pitman Moore, Inc., Washington Crossing, N.J.). […] The needle was advanced through the chest wall into the lung tissue, and the tumor cell inoculum of 2×10^6 cells was then dispersed in a final volume of 0.1 ml HBSS/Matrigel (1:1 ratio). Animals were allowed to recover from anesthesia for approximately 10 min under heat lamps to maintain body temperature. The orthotopic implantation technique is further described in Hamide et al., 1997. For tumors implanted subcutaneously, tumors were measured in a blind fashion with dial calipers, and the volume was calculated using the formula ½*π(W*L*H).
Potential anti-angiogenic and anti-tumor effects of the PAF antagonist BN-50730 were tested on human tumor xenografts in the NCr athymic nude mice. Thirty mice were implanted with subcutaneous human prostatic carcinoma cells, PC-3, at day 0, and were randomized into three groups. Mice were treated either with a placebo, 30 mg/kg BN-50730, or 60 mg/kg BN-50730 at days 2, 4, 6, 8, 10, and 12 as shown in the schedule of FIG. 2b. Animals were sacrificed at day 13, 17, 21 and 28, and the volumes of the subcutaneous tumors were measured using dial calipers and the formula ½*π(W*L*H) as described in Example 1.
In a separate experiment to determine the effects of a high dose of LAU-8080 dissolved in 2-hydroxypropyl-β-cyclodextran (instead of DMSO) on PC-3 xenografts, mice were treated as shown in FIG. 4b. Tumors were implanted subcutaneously at day 0. The mice were then divided into two groups to receive injections of either a placebo or 120 mg/kg LAU-8080 on days 1, 3, 5, 8, 10, and 12. Mice were sacrificed on days 6, 8, 11, 13, 15, 18, 20, 21, and 25; and the volumes of the tumors were measured as described above.
Tumors were implanted at day 0. The tumors were allowed to expand to 100 mm^3 before treatment was initiated as shown in the schedule in FIG. 10b. Tumor measurements were begun on day 9. Treatments of the different groups were on days 13, 15, 17, 20, 22, 24, 27, 29, and 31. Tumor measurements were taken on days 13, 16, 20, 24, 27, 31, 37, and 40.

[2] = test system: human umbilical vein endothelial cells (HUVEC); test: HUVEC proliferation, [3H]thymidine incorporation; format: cell-based
Method: Human umbilical vein endothelial cells (“HUVEC”) were propagated in one of three growth media depending on the experimental conditions. HUVEC were maintained in endothelial basal medium (“EBM-2”) (Clonetics, Walkersville, Md.) supplemented with 2% FBS (Clonetics). HUVEC were also grown in endothelial growth medium (“EGM”) (Clonetics), which contained 3 mg/ml (protein content) bovine brain extract, 10 ng/ml EGF ([…]), 1 μg/ml hydrocortisone, 2% FBS, gentamicin, and amphotericin-B. HUVEC were likewise grown in EGM-2, supplemented with VEGF ([…]), R^3-IGF-1 (long recombinant-3 insulin-like growth factor-1), ascorbic acid, heparin, 2% FBS, EGF, bFGF, gentamicin, and amphotericin-B.
Based on the above in vitro tumor data, the effect of BN-50730 on tumor growth is believed to result from inhibition of angiogenesis. To test this theory, the effect of BN-50730 on angiogenesis of HUVEC cells was measured using two growth media designed to induce rapid proliferation, EGM or EGM-2. HUVEC growth was measured by [^3H]thymidine incorporation into DNA.
As many tumors are known to produce angiogenesis-inducing factors, an experiment was conducted to test for increased proliferation of HUVEC cells exposed to 201T-conditioned medium. 201T cells were allowed to condition basal medium (EBM supplemented with 2% FBS) for 48 hr. […] EGM-2 is a medium containing the growth factors bFGF, VEGF, IGF-1, and EGF.
To characterize the inhibitory effects of BN-50730 on HUVEC proliferation, a series of growth assays was performed in which growth factors were either added or omitted singly from the growth medium in the presence or absence of BN-50730. The cells were grown in a medium supplemented with [^3H]thymidine, in either the presence or absence of BN-50730. Cells that proliferate will incorporate [^3H]thymidine into their DNA. In the first experiment, individual growth factors VEGF, IGF-1, bFGF, or EGF were added to EBM-2 supplemented with 2% FBS. […] This experiment supports the hypothesis that different cellular mechanisms use different peptide growth factors.
In a subsequent experiment, mixtures of the growth factors were analyzed, with only one growth factor absent from the medium, and each of the other three were present, in the presence or absence of 10 μM BN-50730. […] However, no reduction was seen when bFGF was absent.

COc1ccc(NC(=O)N2CCc3c(sc4c3C(c3ccccc3Cl)=NCc3nnc(C)n3-4)C2)cc1 [BN-50730, tetrahydro-4,7,8,10 methyl-1 (chloro-2 phenyl)-6 (methoxy-4 phenyl-carbomoyl)-9 pyrido [4′,3′-4,5] thieno [3,2-f] triazolo-1,2,4[4,3-α]diazepine-1,4]
tumor size (volume) of subcutaneous PC-3 xenografts ([1]; 30 mg/kg or 60 mg/kg at days 2, 4, 6, 8, 10, 12, measured day 13, 17, 21, 28, vs placebo, p<0.001): significant dose-dependent reduction in tumor size
tumor volume of subcutaneous PC-3 xenografts, high dose ([1]; 120 mg/kg in 2-hydroxypropyl-β-cyclodextran on days 1, 3, 5, 8, 10, 12, vs placebo, p=0.0001, F-test): significantly smaller tumors
time at which tumors began to increase in size ([1]; 120 mg/kg on days 1, 3, 5, 8, 10, 12, PC-3 xenografts): did not begin to increase in size until after treatment was stopped at day 12
tumor size, BN-50730-treated vs IFN-2a-treated mice ([1]; established PC-3 xenografts, 120 mg/kg vs 1,000 U, p=0.089, F-test): no significant difference
tumor size of established PC-3 xenografts vs control animals ([1]; tumors expanded to 100 mm^3 before treatment, treatment days 13-31, 120 mg/kg BN-50730 and/or 1,000 U IFN-2a, p<0.001, F-test): significantly smaller tumors
HUVEC growth in EGM or EGM-2 medium ([2]; 5 μM, both growth conditions, p=0.001, Student's t-test): significantly reduced the growth of HUVEC
stimulation of HUVEC growth in 201T-conditioned medium or EGM-2 medium ([2]; 5 μM, either medium): inhibited
HUVEC growth in medium containing EGF as single growth factor ([2]; 10 μM, EBM-2 + 2% FBS + EGF): No difference
HUVEC growth in medium containing IGF-1 as single growth factor ([2]; 10 μM, EBM-2 + 2% FBS + IGF-1): No difference
HUVEC growth in medium containing VEGF as single growth factor ([2]; 10 μM, EBM-2 + 2% FBS + VEGF, p=0.036): small, but significant
HUVEC growth in medium containing bFGF as single growth factor ([2]; 10 μM, EBM-2 + 2% FBS + bFGF, p=0.0002): larger reduction
HUVEC growth in medium with bFGF absent ([2]; 10 μM, VEGF, IGF-1 and EGF present): no reduction
HUVEC growth in medium lacking only VEGF, IGF-1 or EGF ([2]; 10 μM, other three growth factors present): reduction in growth
